Results published in PubChem BioAssay (NCI).
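Assay format: 96-well plates, 48-hour exposure. GI50: concentration for 50% inhibition of growth. TGI: concentration producing complete growth inhibition.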

Legend:
Assay in all cases: NCI anticancer screen, dose series, 48 h
A498 renal = tested on: A498 renal
LOX IMVI melanoma = tested on: LOX IMVI melanoma
M14 melanoma = tested on: M14 melanoma
OVCAR-8 ovarian = tested on: OVCAR-8 ovarian
SK-MEL-5 melanoma = tested on: SK-MEL-5 melanoma
SNB-19 CNS = tested on: SNB-19 CNS
UACC-62 melanoma = tested on: UACC-62 melanoma
MDA-MB-231 breast = tested on: MDA-MB-231 breast
MDA-MB-435 = tested on: MDA-MB-435
BT-549 breast = tested on: BT-549 breast

SMILES	TGI (A498 renal) [µM]	TGI (LOX IMVI melanoma) [µM]	TGI (M14 melanoma) [µM]	TGI (OVCAR-8 ovarian) [µM]	TGI (SK-MEL-5 melanoma) [µM]	TGI (SNB-19 CNS) [µM]	TGI (UACC-62 melanoma) [µM]	TGI (MDA-MB-231 breast) [µM]	TGI (MDA-MB-435) [µM]	GI50 (A498 renal) [µM]	GI50 (BT-549 breast) [µM]	TGI (BT-549 breast) [µM]	GI50 (M14 melanoma) [µM]	GI50 (MDA-MB-231 breast) [µM]	GI50 (MDA-MB-435) [µM]	GI50 (OVCAR-8 ovarian) [µM]	GI50 (SK-MEL-5 melanoma) [µM]	GI50 (SNB-19 CNS) [µM]	GI50 (UACC-62 melanoma) [µM]	GI50 (LOX IMVI melanoma) [µM]
C[Si](C)(C)/C=C\CCO	> 100	> 100	> 100	> 100	> 100	> 100	> 100													
C[C@]12CC[C@H](O)CC1=CC[C@@H]1C2CC[C@]2(C)Nc3c(cnn3-c3ccccc3)CC12 (stereo not given in full)	29.7		30.9	> 100	12.4		17.4													
CC(C)(C)C(=CS(=O)/N=C/c1ccccc1)C(C)(C)C (stereo not given)	> 100	35.4	> 100	> 100	73	> 100														
Cc1cccc(C)c1NC(=O)CCc1nc(=S)[nH][nH]1	> 100	> 100	> 100	> 100		> 100	> 100													
CC(C)OP(=O)(OC(C)C)/C(N)=N/Nc1ccc([N+](=O)[O-])cc1		> 100	> 100	> 100	> 100	> 100	> 100													
Cn1c(-c2ccc(/C=N/NC(=S)N/N=C/c3ccc(-c4c[n+]5ccsc5n4C)cc3)cc2)c[n+]2ccsc12			> 100	> 100	> 100	> 100		> 100	> 100											
Cc1c(NC(=S)NC(=O)c2ccc([N+](=O)[O-])cc2)c(=O)n(-c2ccccc2)n1C	> 100	> 100	> 100	> 100	> 100	> 100	> 100													
N/N=C1\C(=O)N(c2ccc(Cl)cc2Cl)C(=O)C(=O)C1c1nc2ccccc2o1 (stereo not given)	> 100	> 100	> 100	> 100	> 100	> 100	> 100													
COc1cc2c(cc1OC)C(=O)/C(=C/c1cc(-c3ccc4c(c3)OCO4)n[nH]1)C2	2.83		3.4	3.05	3.06	2.96	3.04	3.2	3.27	1.33	1.62	3.04	1.82	1.66	1.73	1.57	1.67	1.55	1.63	
COc1ncnc(S(=O)(=O)c2ccc(N=C3C(=O)N(CN4CCN(c5cc6c(cc5F)c(=O)c(C(=O)O)cn6C5CC5)CC4)c4ccc(Cl)cc43)cc2)c1OC		> 50	> 50	> 50	> 50	> 50	> 50	> 50	> 50				> 50	28.5	> 50	32.9	19.7	> 50	8.75	23.8
CC1CCSC(N(C(=O)N(C)c2ccccc2)c2ccccc2)=N1 (stereo not given)	> 100	> 100	> 100	> 100	> 100	> 100	> 100													
COC(=O)CC(NC(=O)OCc1ccccc1)C(C(=O)OCc1ccccc1)C(C)(OC)OC (stereo not given)	> 100	52.7	> 100	> 100	26.7	> 100	42.3													
O=C1C=CC(=O)c2c(O)c(NCCOCCO)c(Cl)c(O)c21		16.7	23.5	20.4	4.47		11.7													
CC(=O)OCC(=O)[C@@]12OC(C)(C)O[C@@H]1C[C@H]1[C@@H]3CC(C=O)=C4C=C(OCCCl)CC[C@]4(C)[C@@]3(F)[C@@H](O)C[C@@]12C	57.9	> 100	61.7	> 100		> 100	> 100													
COc1cc(C)c(C2NC(=O)c3ccccc3N2)cc1C (stereo not given)	4.77	97.9	8.54	> 66.5	5.49		> 100	> 85.7	0.209			71.4								
COc1ccc(CCc2cc(OC)cc(OC)c2)cc1	> 100	> 100	> 100	> 100	> 87	> 100	> 100													
CC(C)CCCC(C)[C@H]1CCC2[C@@H]3CCC4Nc5c(cnn5-c5ccccc5)C[C@]4(C)C3CC[C@@]21C (stereo not given in full)	> 100		> 100	> 100	> 100	63.1	40.4													
O=S(=O)(NCn1ccc2ccccc21)c1ccccc1	> 100	> 100	> 100	> 100	> 100	> 31.6	> 100													
O=C(Nc1ccc(-c2nc(-c3cccc(OCCN4CCOCC4)c3)c(-c3ccnc(Br)c3)[nH]2)cc1)c1ccccc1	3.96		4.36	> 100	3.21	9.07	6.19	> 100	3.76	1.49	2.71	> 100	1.8	2.84	1.69	3.96	1.77	2.19	1.91	
O=c1ncccn1C1OC(CO)C(O)C1O (stereo not given)	> 100	> 100	> 100	> 100		> 100	> 100													
O=C(NCCc1ccccn1)OCc1nc2nc(Cl)nc(N3CCOCC3)c2[nH]1	10.4	1.61		15.4	4.54	16.5	3.03	3.17	2.78	2.64	2.22	6.83		1.6	1.33	3.17	2.1	4.58	1.53	0.372
O=C(O)CCNCCCCNCCC(=O)O	> 100	> 100	> 100	> 100	> 100	> 100	> 100													
C=CCO/N=C(\OC(=O)c1ccc([N+](=O)[O-])cc1)c1ccccc1	> 100		> 100	> 100	> 100	> 100	> 100													
COc1ccc(C(=O)C(CC2C(=O)NC(=O)NC2=O)c2ccc(OC)cc2)cc1 (stereo not given)	> 100	> 100	> 100	> 100	> 100	> 100	> 100													
